Patent US6696495B2, “Treatment of disorders secondary to organic impairments” (Snowden Pharmaceuticals, LLC, priority 1998, dated 2004)

Columns and labels:
[1] = tested on: Reflex Sympathetic Dystrophy Syndrome (RSDS); assay: Case history 22; assay type: in vivo, human; conditions: sibutramine 10 mg. b.i.d. Person
Description: 22. Reflex Sympathetic Dystrophy Syndrome (RSDS)
A person injured their left ankle 14 months prior to their initial visit. The left lower leg then became red and then black, hot, swollen, and extremely painful. RSD was diagnosed and multiple treatments were unsuccessful. After nine months the skin gradually sloughed and the limb turned cold but remained painful, especially to touch. The patient also noted profuse swelling of the affected left leg, a tremor of the left hand, and many visual-spatial problems characteristic of right cerebral dysfunction. They were declared totally disabled. […] This enabled them to discontinue their other medication.

[2] = tested on: Tourette's Tics, Asocial Behavior, and Relief of Hyposexuality; conditions: sibutramine 5 mg three times a day
[3] = tested on: Sexual Function, ADD, and Rage Outbursts; assay: Case history 3, Sibutramine Patient No. 100; assay type: in vivo, human; conditions: sibutramine 10 mg twice a day
[4] = Overall clinical observations in the patients treated with sibutramine; assay type: in vivo, human
Description: The term sibutramine as used herein means compounds of sibutramine hydrochloride monohydrate, more specifically N,N-dimethyl-1-[1-(4-chlorophenyl)cyclobutyl]-3-methylbutylamine hydrochloride preferably in its monohydrate form, and enantiomers and analogues thereof, as described in U.S. Pat. Nos. 4,746,680, 4,929,629 and 5,436,272. Sibutramine is believed to inhibit reuptake of norepinephrine, serotonin and dopamine thereby intensifying their effects in the brain. Sibutramine is commercially available as MERIDIA®, Knoll Pharmaceutical Company, Mount Olive, N.J. Capsules are presently available with discrete dosages of 5, 10 and 15 mg for oral administration. The sibutramine is administered in a pharmaceutically active dose. The preferred dosage is about 5 mg three times a day but there is variation between patients for the best dose. It is believed that the cytochrome P450 system differs in individuals and the dose must be determined empirically in each patient. The effect of the cytochrome P450 system on metabolism of psychotropic drugs is discussed in “Intercom: The Experts Converse”, published by The Journal of Clinical Psychiatry, November 1995. […] It is possible that higher or lower doses can be used depending upon each individual. Therefore, more flexibility in available dosage is needed. Furthermore, means of administration such as injection, rectal suppository, or transdermal patches may be utilized. Finally, a long-acting slow-release means such as oral tablet or capsule would be the preferred route in view of the rapid metabolism noted (5 hour duration of action usually) in most of the patients.
Although the use of sibutramine has been described for the treatment of conditions such as obesity, depression, diabetic hyperglycemia, hyperlipidemia, senile dementia and related conditions, and Parkinson's disease, it has been discovered that sibutramine can be successfully used in treating other problems unrelated to these conditions. […] For example, patients with ADD previously treated with stimulants found it easier to eat when treated with sibutramine and gained weight. […] It was generally necessary to continue anti-depressant therapy along with the sibutramine therapy.
Above and beyond the known effects of sibutramine on serotonin, dopamine and norepinephrine activation, there is believed to be an effect of this medication on the endorphic opiate neurotransmitter system which is evident in the patients who have been relieved of pain, rage, anger, self-mutilation and particularly addiction to heroin. […] It would appear that sibutramine activates endorphins or, at the very least, modifies the endorphinergic opioid systems to promote serenity and lack of pain and stress, and to reduce craving for heroin. Such a mechanism which was previously unsuspected may have also contributed to the therapeutic effects of sibutramine herein described for PTSD, asocial behavior and fibromyalgic pain which have not been helped by serotonin, dopamine and norepinephrine potentiators. This is in contradistinction to the therapeutic effects of sibutramine on ADHD, chronic fatigue, and the symptoms of Tourette's and non-Tourette's diseases. Finally, a differentiation between the serotonin, dopamine and norepinephrine potentiation versus the opiate-like therapeutic effects of sibutramine may be made in terms of duration of action, whereas the serotonin, dopamine, norepinephrine agonist effects lasted in most patients for only 4-6 hours (therefore requiring tid dosage), the opiate effects appear to last all day and require only a single AM dosage.
These benefits were lost rapidly when either the patient was taken off sibutramine or when steroids, such as cortisone were concomitantly administered.

[5] = tested on: ADHD Refractory to Other Treatments; assay type: in vivo, human; conditions: sibutramine 10 mg every morning by mouth; person
Description: 16. ADHD Refractory to Other Treatments (Problem No. 6) Sibutramine Patient No. 16
The amphetamines made their nervous, jittery, and unable to sleep. […] They were started on sibutramine 10 mg every morning by mouth. […] After the first month, their dose was changed to 5 mg three times daily due to a five hour duration of effects.

[6] = tested on: Severe Post-Traumatic Stress Reaction
Description: Finally, this patient was taken off of fluoxetine 20 mg when sibutramine treatment was initiated.

[7] = tested on: Severe ADHD Refractory to All Other Medications With Executive (Frontal Lobe) Problems
Description: A person was seen first for a life-long history of severe hyperactivity, distractibility, disorganization, poor memory of studied material, very poor concentration, and school failure despite a high IQ. There was no known history of head injury, other neurological disease, nor metabolic disease.

[8] = tested on: Chronic Psychosis and Tardive Dyskinesia; assay: Case history 28; assay type: in vivo, human
Description: 28. Chronic Psychosis and Tardive Dyskinesia
They were committed to a Psychiatric Hospital multiple times and was treated with multiple neuroleptic medication from which they have developed Tardive Dyskinesia. They were administered 15 mg sibutramine a day which had immediate effects, in less then one hour the improvement was noticed by them and others. […] They continue to take sibutramine along with 15 mg of Zyprexa daily.

[9] = tested on: frontal lobe executive function, ADHD, and hyposexuality
[10] = sibutramine 15 mg three times a day

Compound: CC(C)CC(N(C)C)C1(c2ccc(Cl)cc2)CCC1.Cl (centres unmarked) [sibutramine, N,N-dimethyl-1-[1-(4-chlorophenyl)cyclobutyl]-3-methylbutylamine hydrochloride]
- cognition and pain [1]: rapidly became cognitive and had pain relief
- ADHD [2]: his ADHD improved
- communication and social skills [2]: their communication and social skills improved
- motor and vocal tics, obsessive compulsive component ([2]; child): the motor and vocal tics associated with Tourette's Disease were decreased as well as the obsessive compulsive component
- concentration and anger outbursts [3]: able to concentrate better and had fewer and less severe anger outbursts
- sexual drive and interest ([3]; person): an increase in their sexual drive and interest
- highest dose ([4]; 15 mg 3 times daily): 45 mg
- neurogenesis ([4]; believed, evidenced by increase in the hippocampus, enhanced mental and motor skills): induced neurogenesis
- lowest effective dose ([4]; human, in vivo): 0.25 mg daily
- onset of improvement ([4]; human, in vivo): alleviated within minutes or hours of treatment
- duration of serotonin, dopamine, norepinephrine agonist effects ([4]; most patients): 4 to 6 h
- depression ([4]; patients removed from anti-depressant medication): became depressed when removed from the anti-depressant medication and treated with sibutramine alone
- symptoms of Post Traumatic Stress ([4]; patients with Post Traumatic Stress): relieved the symptoms of Post Traumatic Stress
- duration of opiate effects ([4]; single AM dosage): last all day
- duration of action ([4]; usually, in most of the patients): 5 h
- effect on ADHD [5]: a calming and an alerting effect
- depression ([6]; human, in vivo): became severely depressed despite the relief from PTSD
- PTSD symptoms and sedation at lower dosage ([6]; less than 1 mg once a day): provided relief again from their PTSD symptoms but without the sedation
- side effects ([6]; one-half of the smallest capsule (5 mg), deficiency in P-450 cytochrome system enzymes): produced drowsiness, sugar craving, and weight gain
- PTSD reaction to thunder ([6]; sibutramine 10 mg in the morning, person): completely oblivious of their former psychotic fear of thunder
- symptoms after sibutramine was stopped ([6]; stopped after one and a half months): rapid return of the fear of thunder, sound and light sensitivity, exaggerated startle reflex, headaches, and nightmares of life and death situations
- maximum duration of a single dose effect ([7]; rapid catabolism): 4 to 5 h
- ability to plan and execute (executive function) [7, 10]: marked improvement in their ability to form appropriate, organized plans and execute them promptly without procrastination or distraction
- complaints [7, 10]: being “too calm” with a loss of the exciting high-risk behavior of the past
- calm, concentration, retention of information ([7]; sibutramine 15 mg three times a day, person): the first medication to calm them and permit careful, quiet concentration and retention of information
- emotion and paranoia ([8]; 15 mg sibutramine a day, with Zyprexa): emotional for the first time and diminishing their paranoia greatly
- time to noticed improvement ([8]; 15 mg sibutramine a day, person): one hour
- Tardive Dyskinesia ([8]; after the first week): his Tardive Dyskinesia improved
- sexual drive after radical prostatectomy ([9]; sibutramine): this problem of sexual drive was repaired
- efficacy after dose decrease ([9]; sibutramine 5 mg bid, pemoline and methylphenidate discontinued): without a loss of efficacy
- side effects ([9]; sibutramine 10 mg. bid): dry mouth and some insomnia
- concentration and ability to plan ([9]; sibutramine 10 mg. bid p.o. Person): immediate repair of concentration, and particularly their ability to plan and carry out these plans effectively
